Assay results from a melting point compilation (Tetko et al.; mined from patent text by program, amines drawn as free bases though some values may be those of a salt).

SMILES	melting point [°C]
CCc1c(Cc2ccccc2)n(COCCO)c(=O)[nH]c1=O	120 to 122
CCOC(=O)c1[nH]nnc1Nc1ccc(C)cc1	129 to 130
[O-][N+](=CCCc1ccccc1)C1CCCCC1	97.2
Cc1nc2cc3c(cc2nc1C(=O)OC(C)(C)C)OC(C)(C)O3	104 to 105
O=c1c2ncn3c2n(c(=O)n1Cc1ccc([N+](=O)[O-])cc1)CC=C3c1cccc(C(F)(F)F)c1	230 to 232
C[N+](C)([O-])S(=O)(=O)c1ccc2c(c1)N(C1CN3CCC1CC3)c1ccccc1S2=O (stereo unspecified)	130
CCc1n[nH]c(CC)c1CCCCCCOc1ccc(OC)cc1Cl	91 to 93
COCCN(C)Cc1c(-c2ccc([N+](=O)[O-])cc2)sc2c1c(=O)n(-c1ccc3c(c1)OCO3)c(=O)n2Cc1c(F)cccc1F	190 to 192
CN1CC(Cn2cnnn2)CC2c3cccc4[nH]cc(c34)CC21 (stereo unspecified)	206 to 209
OC(Cn1ccnc1)(c1ccc(Cl)cc1)C1(Oc2ccc(Cl)cc2)CC1 (stereo unspecified)	172 to 173
COc1c(C)cc(C)cc1C(=O)O	97 to 98
COC(=O)Nc1cccc(C(=O)OC)c1NCc1ccc(-c2ccccc2C#N)cc1	113 to 115
Cc1ccc(-n2nc(OC(=O)c3ccccc3)c3c(c2=O)Cc2ccc(Cl)cc2N3)cc1	248 to 250
O=C1NC(c2ccccc2)(c2ccccc2)C(=O)N1CO	185 to 189
CC(C)(C)OC(=O)NCC1CCCc2ccc(C(=O)O)cc21 (stereo unspecified)	172 to 176
COCC(C)NC1=NS(=O)(=O)c2cc(Cl)cnc2N1 (stereo unspecified)	150 to 156
O=C(O)COc1cc(Cl)ccc1C(=O)NCc1ccc(OC(F)(F)F)cc1	184 to 185
CCOCc1nc2c(N)nc3ccccc3c2n1CCCON=C(C)C	109 to 111
CNCC1Cc2cc(Cl)cc(-c3cccc(OC)c3OC)c2O1 (stereo unspecified)	105 to 107
CNc1nc(NN)ncc1C#N	247 to 249
O=CN1CCN(c2ncc3c(=O)c(C(=O)O)c[nH]c3n2)CC1	> 300
O=C(O)c1cc2c3ccccc3n(-c3ccccc3)c2s1	206 to 207
CC(C)OC(=O)c1ccccc1SNc1ccc(OC(F)(F)F)cc1	120 to 121
CCn1c(=O)c2[nH]c(/C=C/c3ccc(OC)cc3OC)nc2n(CC)c1=O	279 to 280

SMILES	melting point [°C]
COC(=O)c1cc(S(C)=O)ccc1OC (stereo unspecified)	64 to 66
Cc1nnc2n1-c1ccc(C#C[Si](C)(C)C)cc1C(c1ccccc1)=NC2	229 to 233
CCCN(CCC)c1c([N+](=O)[O-])cc(C2OCCS2)cc1[N+](=O)[O-] (stereo unspecified)	111 to 112
CC1Cc2ccc(O)cc2C1(C)C (stereo unspecified)	66 to 67
CC(=O)OC1CC(C)(C)N(OC(=O)C=Cc2ccccc2)C(C)(C)C1	130 to 132
Nc1c(Br)cc(-n2cnnc2)cc1C(F)(F)F	202 to 203
COc1ccc(Oc2cccc3c2C2(COc4cc5c(cc42)OCCO5)C(=O)N3C)cc1 (stereo unspecified)	55 to 58
Cc1cc(N)c(C)c(Cl)c1Oc1ccc(Cl)c2ccccc12	118 to 125
COc1ccc(Cc2cc(Oc3c(C)cc(C=C4N=C(C)OC4=O)cc3C)ccc2OC)cn1	164 to 165
CC1SC(=O)NN=C1c1ccc2c(c1)CC(C)(C)C(=O)N2 (stereo unspecified)	245
COc1cc(NC(=O)OC(C)(C)C)cc(OC)c1SC	124 to 126
Cc1cccc(-c2sc(N)nc2-c2ccnc(-c3ccc(OCCN4CCCC4)cc3)c2)n1	150
[O-][N+](=Cc1ccccn1)c1cccc(CO)c1	117 to 119
COc1cc2c(cc1Nc1ncc(Cl)c(Nc3ccccc3S(=O)(=O)N3CCC(O)C3)n1)CCNC(=O)C2 (stereo unspecified)	86 to 97
C[C@H]1CC[C@H]2C(C)(C)[C@H](OS(=O)(=O)c3ccccc3)CC[C@]23Oc2c(c(O)cc4c2CNC4=O)C[C@]13C	160 to 162
NC(=O)c1nnn(Cc2cccc(Cl)c2Cl)c1N	224 to 226
C=CCC1(CC=C)c2cc(-c3ncncn3)ccc2-c2ccc(N(c3ccccc3)c3ccccc3)cc21	235 to 237
CCOC(=O)c1cc2n(CC)c3ccc(Cl)cc3c(=O)n2n1	256 to 257
O=C(O)c1cc(F)cc(-c2cccc3cc(Cc4cccc(C(F)(F)F)c4)sc23)c1	140 to 142
O=C(Nc1ccc(CNc2nc(NC3CC3)nc3ccccc23)cc1)c1ccc(F)cc1	189
CC1=CC2=C(C)C3(CC3)C(C)(O)C(=O)C2=C1 (stereo unspecified)	138 to 140
CC1=CC(=O)C(O)=CC1=CC=Cc1ccccc1	164 to 165
CC(C)(C)c1ccc(OP2N(C(C)(C)C)P(Oc3ccc(C(C)(C)C)cc3C(C)(C)C)N2C(C)(C)C)c(C(C)(C)C)c1 (stereo unspecified)	205 to 210
COc1cccc(S(N)(=O)=O)c1C	193

The next lines start with the values.

melting point [°C]	SMILES
229 to 230	CCc1nc2c(N)nc3cc(OCc4cccc(Cl)n4)ccc3c2s1
213 to 215	Cc1ncc(CNC(=O)c2sc(N3CCN(Cc4ccc(F)cc4)C3=O)nc2C)s1
96	CCCc1nc(C(=O)CC)c(C#N)n1C(c1ccccc1)(c1ccccc1)c1ccccc1
173 to 175	O=C1CN(c2ccc(C(Br)C(Br)c3ccccc3)cc2OCc2ccccc2)S(=O)(=O)N1 (stereo unspecified)
235 to 236	O=C(Cc1c[nH]c2ccccc12)Nc1ccccc1C(=O)Nc1ccccc1
194 to 195	N#Cc1cc(-c2ccc(F)cc2)ccn1
139 to 140	O=C(c1ccc2nonc2c1)N1C2CCC1COC2
144 to 147	COc1ccccc1NC(=O)Nc1nc(Nc2ccccc2-c2ccccc2)nc(N(CCC(=O)O)Cc2ccc(-c3ccccc3)cc2)n1
115	c1ccc(C(c2ccccc2)N2CCN(CCCn3c(C4CCCCC4)nc4ccccc43)CC2)cc1
86 to 88	CCOC(=O)N1CCC(c2ccc(N3CC(COC)OC3=O)cc2)CC1 (racemic)
79 to 81	CCOC(=O)CC(O)c1ccc(-c2ccc([N+](=O)[O-])cc2)o1 (stereo unspecified)
142 to 144	COc1ncc(C(F)(F)F)cc1-c1cccn2nc(Nc3ccc(C4CCN(C(=O)OC(C)(C)C)CC4)cc3)nc12
180 to 183	COC(=O)c1cccc(-c2cn(C)cc(-c3cccc(C)c3)c2=O)c1
102	CCC1C(=O)NC1C=COC(C)=O (stereo unspecified)
57 to 58	C=CCC1C(OCc2ccccc2)CC(OCc2ccccc2)C1OS(=O)(=O)c1ccc(C)cc1 (single isomer, unassigned; (-))
91 to 93	CCCCCCCCCCNC(=O)C=C(c1ccccc1)c1ccc([N+](=O)[O-])cc1
107 to 109	C=CCN1C(=O)CCc2cc(Sc3cccc([C@@]4(O)CCO[C@@H](C)C4)c3)ccc21
93 to 94	CCOC(=O)c1nc(-c2ccc(Cl)c(OC)c2F)cc(N)c1SC
160 to 162	CCC1(CC)NC(=O)Oc2ccccc21
107 to 108	CCCc1nnc(/C=C/c2cc(OCc3ccc(OCc4nc(-c5ccco5)oc4C)c(OC)c3)nn2-c2ccccc2)o1
141 to 142	CCCc1nc(I)c(C=O)[nH]1
139 to 140	CC(=O)NC(C)CCC1CCC(n2cc3ccc(OCC4CC4)cc3n2)CC1 (stereo unspecified)
98	Cn1c(OC2CCOC2)nn(C(=O)Oc2ccccc2)c1=O (stereo unspecified)
131 to 132	CCCOC(=O)c1c(CSc2nccn2C)nc2cc(OC)c(OC)cc2c1-c1ccc(OC)c(OC)c1

melting point [°C]	SMILES
179 to 180	CC(C)(C)c1ccc(OCC(=O)Nc2nnc(-c3cccc(Oc4cccc(C(F)(F)F)c4)c3)s2)cc1
201 to 202	CS(=O)(=O)c1nc2ncc(Cl)cc2s1
27 to 27.5	O=C(O)CCCCCCCCCC=Cc1ccccc1
82 to 85	Fc1cc(Cl)ccc1-n1nc2c(c1Cl)CCCC2
107	Cc1cccc(NC(=O)NCC(=O)N2[C@@H](c3ccccc3F)SC[C@H]2C(=O)OC(C)(C)C)c1
> 280	N#Cc1cccc(-c2nc(Nc3cnccn3)sc2-c2ccncn2)c1
146 to 147	CC(C)OC(=O)c1nc(Cl)c(-c2c(F)cc(F)cc2F)c(N[C@@H](C)C(F)(F)F)n1
> 250	O=C(Nc1cccc2c(=O)nc[nH]c12)c1c(Cl)cccc1Cl
280	N#Cc1cc(C(=O)NNC(=O)c2occc2-c2ccncc2)ccc1O
349 to 352	O=C1c2ccccc2C(=O)N1CCn1nc(O)c2[nH]c3cc(Cl)ccc3c(=O)c2c1=O
211	N#Cc1ccc(C(=Cc2ccc(C#N)cn2)Cn2cncn2)cc1
154 to 156	O=C1NCCN1c1ccccc1
205 to 207	OC1CCN(Cc2nc(-c3ccc4c(c3)Nc3ccccc3S4)cs2)CC1
113 to 114	Cc1cc(OCc2coc(/C=C/c3ccc(S(=O)C(F)(F)F)cc3)n2)ccc1CCCCc1c[nH]nn1 (stereo unspecified)
295 to 297	CNc1nn2c(N)nnc2c2c1CCCC2
76 to 79	CCC1(CC)CN(C(C)(C)C)C(=O)C(C)(CC)N1OC(C)c1ccccc1 (stereo unspecified)
101	COc1cccc(Oc2ccc(C(=O)N(C(C)C)C3CCCCC3)cc2)c1
130	O=C(C#Cc1ccc(Cl)cc1Cl)Nc1ccc2oc(CCN3CCCC3)nc2c1
269 to 270	CS(=O)(=O)NC1CCC(NC(=O)c2ccc(F)cc2)CC1 (stereo unspecified)
105 to 107	Cc1cccc2cc3c(=O)n(CCc4c[nH]c5ccccc45)cc(C(=O)NCCN(C)C)c3nc12
245	CN1CCN(c2c(F)c(F)c3c(=O)c(C(=O)O)cn(C4CC4)c3c2F)CC1
215	CC(=O)Nc1ncc(Cc2ccc(Cl)cc2)c(N)n1
246 to 247	CC(C)n1nc(-c2nc(C#Cc3ccccn3)c(N)nc2-c2ccccc2)ccc1=O
124 to 126	COc1ccc(-c2cc(CN3CCN(C)CC3)c(=O)n(CC=Cc3ccc(Cl)cc3)n2)cc1F
